Measured values from PMC8834644, “Effect of FKBP12-Derived Intracellular Peptides on Rapamycin-Induced FKBP–FRB Interaction and Autophagy” (Cells, 2022).

Experiments:
[1] = system: rapamycin-induced FKBP–FRB interaction within HEK293 cells; experiment: NanoBiT luciferase structural complementation assay of rapamycin-induced FKBP–FRB interaction; assay type: cell-based, human; conditions: HEK293 co-transfected with FRB-LgBit and FKBP-SmBiT, 200 nM rapamycin, RLU for 60 min, qualitative; for peptide concentration inhibiting rapamycin-induced FKBP–FRB interaction: peptide added with rapamycin plus booster after 30 min, at least five determinations in triplicates
Experimental: The protein complementation assay technology used herein, NanoBiT® (Promega, Madison, WI, USA), was commercially designed to investigate inducible PPI under in vivo cellular conditions, allowing the analyses of distinctive molecules that, introduced within cells, can modify inducible PPI [58]. All experimental procedures were performed according to the manufacturer’s recommendations. Briefly, transient transfections were performed with NanoBiT® PPI Control Pair FKBP–FRB (Promega, Madison, WI, USA; catalog number N2016), containing the FRB-LgBit and FKBP-SmBiT vectors (NanoBiT® PPI Control Pair FKBP, FRB; catalog number N2016, Promega, Madison, WI, USA). Plasmids were co-transfected into HEK293 cells using FuGENE® 6 Transfection Reagent (Promega, Madison, WI, USA), according to the recommendations of the manufacturers. Cells transfected in the absence of DNA were the negative controls of the experiments, whereas the green fluorescent protein expressing pEGFP plasmid (Clontech, Mountain View, CA, USA; 100 ng) was used to evaluate transfections efficiencies; after 30 h of transfection, the pEGFP expression was easily assessed by fluorescent microscopy (data not shown).
HEK293 cells (approximately 10^4) cultured in a 96-well plate in DMEM high-glucose medium, supplemented with 10% FBS and 1% penicillin/streptomycin, were transiently co-transfected with 200 ng of both […] and FKBP-SmBiT vectors (NanoBiT® PPI Control Pair FKBP, FRB; catalog number N2016, Promega, Madison, WI, USA); this final plasmid concentration of 200 ng was defined previously testing different plasmid concentrations, as shown in Supplemental Figure S1A. The transfected cells were incubated in Opti-MEM® I Reduced Serum Medium culture medium (Gibco, Gaithersburg, MD, USA) for 2 h and then treated with 200 nM of rapamycin (BPSBioscience, CAS 53123-88-9, San Diego, CA, USA) diluted in Opti-MEM®/0.01% DMSO (Gibco, Gaithersburg, MD, USA; this rapamycin concentration of 200 nM was defined previously testing different concentrations, as shown in Supplemental Figure S1B). […] Graphs of RLU versus time were plotted by GraphPad Prism (GraphPad, San Diego, CA, USA). Control experiments were conducted using VFD10 and VFD7 without cpp covalently bound, in addition to cpp alone (Supplemental Figure S2).

[2] = after 30 min of internalization into Chinese hamster ovarian cells; random control peptide; cited from earlier work
Experimental: Hundreds of InPeps have been described from the most diverse sources, including plants, yeast, fish, and mammals. Despite of the strong evidence that InPeps are natural constituents of the cells, the expected short half-life of peptides within cells full of peptidases contests their stability and biological significance. […] For example, after 30 min of internalization into Chinese hamster ovarian cells, the ...

[3] = system: PPI between cytosolic brain proteins and calmodulin (CaM); conditions: surface plasmon resonance; cited from earlier work
Experimental: (§1) VFD10 and VFD7 (10–50 µM) were shown by surface plasmon resonance to inhibit PPI between cytosolic brain proteins and both calmodulin (CaM) and 14-3-3 epsilon. VFD7 (5–20 µM) introduced into the HEK293 cells by means of transient membra ...

[4] = system: PPI between cytosolic brain proteins and 14-3-3 epsilon; conditions: surface plasmon resonance; cited from earlier work
Experimental: as §1

[5] = system: thimet oligopeptidase and CaM; conditions: in vitro surface plasmon resonance; cited from earlier work
HEK293 cells = conditions: introduced into HEK293 cells by transient membrane permeabilization with CHAPS; cited from earlier work
Experimental: as §1

[6] = system: Atg5^+/+ mouse embryonic fibroblasts cells (MEF); experiment: Cell viability (MTT) after hypoxia-reoxygenation, Atg5+/+ MEF; assay type: cell-based; conditions: 1 µM peptide from 30 min before ischemia with boosters, 3 h hypoxia, 3 h reoxygenation; n = 3 independent experiments; vs. cpp
Experimental: (§2) These experiments were performed to evaluate the possible pharmacological application of VFD7-cpp and additional selected peptides on cell viability, following an ischemic challenge. These experiments also contributed to investigate the possible biological significance of InPeps for cell viability following hypoxia-reoxygenation. Therefore, herein the effect of peptides was evaluated in wild type mouse embryonic fibroblasts cells (MEF) expressing Atg5 (Atg5^+/+) and in the MEF missing autophagy pathway due to the lack of Atg5 (Atg5^−/−); Atg5 is indispensable in both canonical and non-canonical autophagy. Atg5^+/+ and Atg5^−/− MEF were cultured in a 96-well plate in DMEM high-glucose medium supplemented with 10% FBS and 1% penicillin/streptomycin, as previously described. […] After the protocol, cell viability was measured by using tetrazolium salt 3-(4,5-Dimethylthiazol 2-yl)-2,5-diphenyltetrazolium bromide (MTT) assay; these assays measure the mitochondrial metabolic rate and indirectly reflect the viable cell numbers, which are the most commonly used method to evaluate the effect of compounds on cell viability on cultured cells. […]

[7] = system: autophagy-deficient Atg5^−/− MEF cells; experiment: Cell viability (MTT) after hypoxia-reoxygenation, Atg5-/- MEF; assay type: cell-based, mouse; conditions: 1 µM peptide from 30 min before ischemia with boosters, 3 h hypoxia, 3 h reoxygenation; n = 3 independent experiments
Experimental: as §2

VFDVELLKLEYGRKKKRRQRRR [VFD10-cpp, VFD10 covalently coupled to cpp at C-terminus]
effect on rapamycin-induced FKBP–FRB interaction (in words) [1]: unable to alter rapamycin-induced FKBP–FRB interactions

VNMVPVGWASFR [random peptide used as the control in an earlier study]
peptide recovered after internalization [2]: 100%

VFEVELLYGRKKKRRQRRR [VFE7-cpp, VFD7-cpp with D substituted to E]
effect on rapamycin-induced FKBP–FRB interaction (in words) [1]: unable to alter rapamycin-induced FKBP–FRB interactions

EVELLYGRKKKRRQRRR [EVE5-cpp, derived from VFD5-cpp, D to E]
effect on rapamycin-induced FKBP–FRB interaction (in words) [1]: unable to alter rapamycin-induced FKBP–FRB interactions

VELLYGRKKRRQRRR [VFD4-cpp, N-terminally shortened VFD7-cpp derivative]
effect on rapamycin-induced FKBP–FRB interaction (in words) [1]: reduced potencies compared to VFD6-cpp or VFD7-cpp
peptide concentration inhibiting rapamycin-induced FKBP–FRB interaction [1]: 500 nM

AVELLYGRKKKRRQRRR [AVE5-cpp, derived from VFD5-cpp, D to A]
effect on rapamycin-induced FKBP–FRB interaction (in words) [1]: unable to alter rapamycin-induced FKBP–FRB interactions

VFDVELLKLE [VFD10, InPep … derived from FKBP12]
peptide concentration shown to inhibit PPI with calmodulin [3]: 10 to 50 µM
peptide concentration shown to inhibit PPI with 14-3-3 epsilon [4]: 10 to 50 µM
effect on rapamycin-induced FKBP–FRB interaction (in words) [1]: have no effect

DVELLYGRKKRRQRRR [VFD5-cpp, N-terminally shortened VFD7-cpp derivative]
effect on rapamycin-induced FKBP–FRB interaction (in words) [1]: reduced potencies compared to VFD6-cpp or VFD7-cpp
peptide concentration inhibiting rapamycin-induced FKBP–FRB interaction [1]: 500 nM

VFAVELLYGRKKKRRQRRR [VFA7-cpp, VFD7-cpp with D substituted to A]
effect on rapamycin-induced FKBP–FRB interaction (in words) [1]: unable to alter rapamycin-induced FKBP–FRB interactions

VFDVELL [VFD7, InPep VFDVELL derived from FKBP12]
effect on thimet oligopeptidase–CaM interaction (in words) [5]: inhibits the interaction but does not disrupt the association
peptide concentration shown to increase cytosolic Ca2+ concentrations (HEK293 cells): 5 to 20 µM
peptide concentration shown to inhibit PPI with calmodulin [3]: 10 to 50 µM
peptide concentration shown to inhibit PPI with 14-3-3 epsilon [4]: 10 to 50 µM
effect on rapamycin-induced FKBP–FRB interaction (in words) [1]: have no effect

FDVELLYGRKKKRRQRRR [VFD6-cpp, FDVELL (VFD6) covalently coupled to cpp]
cell viability after hypoxia-reoxygenation (MTT) [6]: increase cell viability
peptide concentration inhibiting rapamycin-induced FKBP–FRB interaction [1]: 1 to 500 nM
cell viability after hypoxia-reoxygenation (MTT) [7]: but not on autophagy-deficient Atg5^−/− MEF cells

YGRKKKRRQRRR [cpp, cell-penetrating peptide used alone as control, reference compound]
effect on rapamycin-induced FKBP–FRB interaction (in words) [1]: have no effect
